Measured values: paper PMC12655426 (Pharmaceutics, 2025)
Like-named read-outs stand apart in the source and are kept apart here.

Legend:
Format in all cases: cell-based
[1] = target: T1, OAT4 (Homo sapiens, UniProt Q9NSA0); experiment: Polyphenol inhibition of OAT4-mediated OTA uptake in HEK293 cells; design: host or cells: HEK293, stably transfected; conditions: polyphenol 10 μM, 300 nM OTA, 5 min
T1 sequence (Q9NSA0 1-550): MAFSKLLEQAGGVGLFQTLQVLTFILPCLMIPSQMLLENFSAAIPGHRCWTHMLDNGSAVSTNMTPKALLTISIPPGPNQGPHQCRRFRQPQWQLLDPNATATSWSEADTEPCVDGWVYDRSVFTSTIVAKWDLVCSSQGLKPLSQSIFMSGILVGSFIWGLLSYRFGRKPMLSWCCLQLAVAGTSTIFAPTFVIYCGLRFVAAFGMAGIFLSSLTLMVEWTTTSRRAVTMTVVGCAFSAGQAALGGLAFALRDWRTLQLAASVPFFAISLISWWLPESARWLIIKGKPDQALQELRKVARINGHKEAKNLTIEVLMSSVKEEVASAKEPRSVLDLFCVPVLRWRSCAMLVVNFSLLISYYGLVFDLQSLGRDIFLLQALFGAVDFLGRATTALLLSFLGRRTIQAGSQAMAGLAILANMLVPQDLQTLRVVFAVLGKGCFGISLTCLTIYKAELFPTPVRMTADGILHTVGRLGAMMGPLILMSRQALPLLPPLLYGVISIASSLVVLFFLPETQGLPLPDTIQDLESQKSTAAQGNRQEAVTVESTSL
Experimental: (§1) Because OATP1A2 is expressed at exceptionally low levels in the apical membrane of the kidney as well as in the liver and intestine, interaction studies focused on OAT1, OAT3, OAT4, and BCRP as these will have a greater impact on circulating polyphenol levels. […] Uptake assays were performed in three independent experiments, each in technical triplicate.
(§2) A p-value < 0.05 was considered statistically significant. For the estimation of IC50 or EC50 values, transport activity data were fitted with the following four-parameter logistic models: V=Bottom+Top−Bottom/1+I/IC50^h for inhibitors V=Bottom+[I]^h×(Top−Bottom)/[I]^h+EC50^h for activators where V is transport activity expressed as a percentage of vehicle control, [I] is inhibitor (or activator) concentration, Top and Bottom are the asymptotic plateaus, IC50 or EC50 is the concentration producing half-maximal inhibition (or activation), and h is the Hill slope. All data analyses were performed using GraphPad Prism version 10.2.3 (GraphPad). Parameter estimates are reported as best-fit ± standard error from three independent experiments, each run in technical triplicate.

[2] = target: T2, human BCRP (Homo sapiens, UniProt Q9UNQ0); experiment: Polyphenol modulation of BCRP-mediated OTA efflux in MDCK-II cells; design: host or cells: MDCK-II, transient plasmid transfection
T2 sequence (Q9UNQ0 1-655): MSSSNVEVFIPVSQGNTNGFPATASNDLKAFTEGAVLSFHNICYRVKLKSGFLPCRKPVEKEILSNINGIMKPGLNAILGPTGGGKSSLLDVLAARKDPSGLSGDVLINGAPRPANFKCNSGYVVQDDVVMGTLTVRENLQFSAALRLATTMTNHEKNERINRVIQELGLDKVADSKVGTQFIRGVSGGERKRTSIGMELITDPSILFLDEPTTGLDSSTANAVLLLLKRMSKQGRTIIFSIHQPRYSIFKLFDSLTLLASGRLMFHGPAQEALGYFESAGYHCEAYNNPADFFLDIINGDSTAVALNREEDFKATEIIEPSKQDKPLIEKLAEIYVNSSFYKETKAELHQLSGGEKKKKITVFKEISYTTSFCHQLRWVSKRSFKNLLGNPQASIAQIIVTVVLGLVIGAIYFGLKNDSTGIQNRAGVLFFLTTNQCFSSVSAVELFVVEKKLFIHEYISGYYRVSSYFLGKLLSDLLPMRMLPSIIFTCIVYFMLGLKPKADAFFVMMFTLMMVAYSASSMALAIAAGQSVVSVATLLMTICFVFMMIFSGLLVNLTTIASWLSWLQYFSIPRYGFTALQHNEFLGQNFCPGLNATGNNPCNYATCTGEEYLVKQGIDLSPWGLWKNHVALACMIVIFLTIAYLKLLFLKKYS
Experimental: The concentrations of polyphenols tested were as follows: ECG and miquelianin: 100, 200, 400, 600, 800, 1000 μM; caffeic acid: 50, 100, 500, 1000, 5000, 10,000 μM; luteolin: 0.1, 1, 10, 20, 25, 40, 50, 60, 100, 150 μM; myricetin: 5, 10, 50, 100, 250, 500, 650, 750, 850, 1000 μM. All other assay conditions were as described above. Transport activity was expressed as percent of vehicle control and fitted to a four-parameter logistic model to obtain half-maximal inhibitory concentration (IC50) values (for inhibition) or half-maximal effective concentration (EC50) values (for activation). Three independent experiments, each with technical triplicate, were performed for every compound.
as §2

[3] = target: T3, human OAT1 (Homo sapiens, UniProt Q4U2R8); experiment: Polyphenol inhibition of OAT1-mediated OTA uptake in HEK293 cells; conditions: for OTA uptake, fraction of vehicle control: polyphenol 10 μM, 300 nM OTA, 5 min
T3 construct: host or cells: HEK293, stably transfected
T3 sequence (Q4U2R8 1-563): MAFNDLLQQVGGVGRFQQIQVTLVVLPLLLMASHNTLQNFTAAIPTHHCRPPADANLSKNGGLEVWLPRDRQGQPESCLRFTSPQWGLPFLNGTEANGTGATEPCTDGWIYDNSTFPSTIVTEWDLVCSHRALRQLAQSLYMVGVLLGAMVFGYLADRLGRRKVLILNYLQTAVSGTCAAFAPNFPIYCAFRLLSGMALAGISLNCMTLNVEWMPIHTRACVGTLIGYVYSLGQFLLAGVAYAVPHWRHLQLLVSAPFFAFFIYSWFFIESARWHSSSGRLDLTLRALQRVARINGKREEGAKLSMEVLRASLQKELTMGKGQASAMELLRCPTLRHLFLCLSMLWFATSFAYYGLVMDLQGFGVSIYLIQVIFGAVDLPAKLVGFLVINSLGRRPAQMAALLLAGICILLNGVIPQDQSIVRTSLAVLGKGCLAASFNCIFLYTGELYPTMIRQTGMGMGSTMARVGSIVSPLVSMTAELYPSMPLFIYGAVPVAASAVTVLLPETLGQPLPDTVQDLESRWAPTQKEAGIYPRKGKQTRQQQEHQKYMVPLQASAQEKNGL
Experimental: as §1, §2

[4] = target: T4, OAT3 (Homo sapiens, UniProt Q8TCC7); experiment: Polyphenol inhibition of OAT3-mediated OTA uptake in HEK293 cells; design: host or cells: HEK293, stably transfected; conditions: for OTA uptake, fraction of vehicle control: polyphenol 10 μM, 300 nM OTA, 5 min
T4 sequence (Q8TCC7 1-542): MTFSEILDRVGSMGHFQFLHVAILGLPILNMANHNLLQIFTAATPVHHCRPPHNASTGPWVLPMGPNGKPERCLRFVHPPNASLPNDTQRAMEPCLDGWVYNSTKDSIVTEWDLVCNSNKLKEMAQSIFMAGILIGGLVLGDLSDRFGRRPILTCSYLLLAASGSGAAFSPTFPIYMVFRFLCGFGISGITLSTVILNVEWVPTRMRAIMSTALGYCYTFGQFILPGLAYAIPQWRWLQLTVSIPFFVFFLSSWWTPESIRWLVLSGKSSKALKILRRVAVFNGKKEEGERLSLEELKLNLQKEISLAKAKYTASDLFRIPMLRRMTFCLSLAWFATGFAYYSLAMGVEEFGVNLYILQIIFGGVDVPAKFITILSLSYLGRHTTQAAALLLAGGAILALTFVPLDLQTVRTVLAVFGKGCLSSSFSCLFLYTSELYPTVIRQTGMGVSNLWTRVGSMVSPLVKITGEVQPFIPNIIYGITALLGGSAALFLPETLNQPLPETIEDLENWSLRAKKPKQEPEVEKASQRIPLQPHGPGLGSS
Experimental: as §1, §2

Row | Compound | OTA uptake, fraction of vehicle control [1] | IC50 [2] [µM] | decrease of OAT1-mediated OTA uptake ([3]; 10 µM) [%] | OTA uptake, fraction of vehicle control [3] | decrease of OAT3-mediated OTA uptake ([4]; 10 µM) [%] | OTA uptake, fraction of vehicle control [4] | IC50 ([2]; read-out: IC50, inhibition of BCRP-mediated OTA transport, 300 nM OTA, efflux ratio as % of vehicle control) [µM] | effect on BCRP-mediated OTA transport ([2]; 300 nM OTA, 100 to 1000 μM) | EC50 [2] [µM] | maximal stimulation of BCRP-mediated OTA efflux ([2]; 300 nM OTA)
1 | O=c1cc(-c2ccc(O)c(O)c2)oc2cc(O)cc(O)c12 [luteolin] | 0.7 fold of vehicle control | 22 | 72 | 0.28 fold of vehicle control | 64 | 0.36 fold of vehicle control | – | – | – | –
2 | O=C(O[C@@H]1Cc2c(O)cc(O)cc2O[C@@H]1c1ccc(O)c(O)c1)c1cc(O)c(O)c(O)c1 [ECG, (-)-Epicatechin-3-O-gallate] | did not significantly inhibit | – | – | did not significantly inhibit | – | did not significantly inhibit | 495 | – | – | –
3 | quercetin 3-O glucuronide [Miquelianin] | no significant effects | – | – | no significant effects | – | 0.58 fold of vehicle control | – | no appreciable inhibition or activation | – | –
4 | O=c1c(O)c(-c2cc(O)c(O)c(O)c2)oc2cc(O)cc(O)c12 [myricetin] | 0.82 fold of vehicle control | 425 | – | 0.73 fold of vehicle control | – | 0.74 fold of vehicle control | – | – | – | –
5 | O=C(O)/C=C/c1ccc(O)c(O)c1 [caffeic acid] | did not significantly inhibit | – | – | did not significantly inhibit | – | did not significantly inhibit | – | – | 714 | around 2 fold of control
